According to PMC3895568, “Isolation and characterization of Leucine dehydrogenase from a thermophilic Citrobacter freundii JK-91strain Isolated from Jask Port” (Iranian Journal of Microbiology, 2013):

Tested on: T1, LeuDH (Leucine dehydrogenase, EC 1.4.1.9)
T1 construct: native enzyme purified from isolate JK-91 (ammonium sulfate, DEAE-Toyopearl, TSK gel G3000SW); subunit 40 kDa, about 320 kDa, octamer
Assay: NADH formation at […] nm, oxidative deamination
Format: biochemical, Citrobacter freundii
Settings: co-substrate NAD+; standard assay 50 mM glycine-NaOH pH 10.4, 100 mM NaCl, 2.5 mM NAD+; exact conditions and temperature of the kinetics not stated

CC(C)C[C@H](N)C(=O)O [L-leucine]
Km: 1.2 mM
